Source: PMC8566587, “Selection for constrained peptides that bind to a single target protein” (Nature Communications, 2021)
Where a SMILES comes first, the peptide text is derived from it.

Experiments:
[1] = cited from earlier work
Source text: The genetic circuit is based on a split intein and σ factor to which the peptide library is fused. This could be used to screen/select libraries of linear peptides or protein domains for binding to the target. Here, we decided to use modified peptides because they have advantages as pharmaceuticals, including more compact structures that are resistant to proteolysis and permeate the mammalian cell membrane. Modified peptides have been approved for the treatment of cancer, inflammation, and infection and increasing numbers are entering all phases of clinical development for diverse indicatio ...

[2] = biological target: SARS-CoV-2 Spike RBD (RBD296-531) (Severe acute respiratory syndrome coronavirus 2, UniProt P0DTC2); assay: biochemical; assay type: binding
[3] = tested on: Spike RBD; assay type: cell-based, SARS-CoV-2

Enfuvirtide
proteolysis (in words) [1]: suffers from rapid proteolysis

CC[C@H](C)[C@H](NC(=O)[C@H]1NC(=O)[C@H](C(C)C)NC(=O)[C@H]([C@@H](C)CC)NC(=O)[C@H](CCC(=O)O)NC(=O)[C@@H](NC(=O)[C@H](Cc2c[nH]c3ccccc23)NC(=O)[C@H](CCC(=O)O)NC(=O)CNC(=O)[C@H](Cc2ccc(O)cc2)NC(=O)[C@H](CCCCN)NC(=O)[C@H](CS)NC(=O)[C@@H](NC(=O)CN)C(C)C)CSC1CC(=O)O)C(=O)O (stereo partly shown) [AMK-1057] (HELM PEPTIDE1{G.V.C.K.Y.G.E.W.C.E.I.V.[O=C(O)CC([C@H](N[*:1])C(=O)[*:2])[*:3]].I}$PEPTIDE1,PEPTIDE1,9:R3-13:R3$$$V2.0)
Kd [2]: 990 ± 5 nM

VCKYGEWCEIVEI [Pap2c_1]
fluorescence output (in words) [3]: strong fluorescence output | specificity for Spike RBD as compared to Mdm2* [3]: 14 fold
